Measured values reported in US10259781B2, “Imaging agents” (THE REGENTS OF THE UNIVERSITY OF MICHIGAN, priority 2012, dated 2019).
Entries after “also recorded” stand apart in the source; their conditions may differ.

Tests used:
[1] = target: T1, norepinephrine transporters (NET) (Macaca mulatta, UniProt Q9MYW8); assay: Desipramine (DMI) block of the neuronal uptake of [18F]4F-MHPG, microPET; format: in vivo, rhesus macaque monkey
T1 construct: from tissue; host or cells: heart (presynaptic sympathetic nerve terminals) of living rhesus macaque monkeys, microPET in vivo
T1 sequence (Q9MYW8 1-617): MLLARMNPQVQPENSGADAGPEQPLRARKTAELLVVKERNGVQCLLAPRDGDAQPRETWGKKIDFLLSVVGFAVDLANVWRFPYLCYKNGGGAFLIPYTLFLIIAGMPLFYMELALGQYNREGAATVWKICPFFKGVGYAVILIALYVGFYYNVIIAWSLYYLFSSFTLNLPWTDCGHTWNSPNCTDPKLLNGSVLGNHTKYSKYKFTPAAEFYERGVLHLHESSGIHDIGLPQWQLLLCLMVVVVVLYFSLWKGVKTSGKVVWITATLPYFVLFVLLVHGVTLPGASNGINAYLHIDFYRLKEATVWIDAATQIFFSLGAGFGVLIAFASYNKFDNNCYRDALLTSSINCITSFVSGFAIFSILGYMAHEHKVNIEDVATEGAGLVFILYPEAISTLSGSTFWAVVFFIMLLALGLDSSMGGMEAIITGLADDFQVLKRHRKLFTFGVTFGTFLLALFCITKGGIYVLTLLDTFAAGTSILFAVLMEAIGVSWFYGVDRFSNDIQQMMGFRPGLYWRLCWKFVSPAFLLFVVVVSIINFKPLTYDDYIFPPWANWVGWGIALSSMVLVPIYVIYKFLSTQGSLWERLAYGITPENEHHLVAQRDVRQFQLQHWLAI
Source text: Additional data were collected and Patlak analyses performed.
Orthogonal slice images were acquired for comparison with data from a control study.

[2] = In vitro incubation with monkey liver cytosol fraction and PAPS (sulfur conjugation); format: in vitro ADME
Experimental: The main radiometabolite formed is more polar than the parent compound, [^18F]4-MHPG. The metabolite has been identified as the sulfur conjugate of [^18F]4-MHPG based on in vitro incubations of the parent compound with a monkey liver cytosol fraction and the required cofactor 3′-phospho-adenosine-5′phosphosulfate (PAPS). After only 1 minute of in vitro incubation, approximately 70% of [^18F]4-MHPG was sulfur conjugated, and after 20 minutes of incubation, 100% was in the sulfur-conjugated form (FIG. 4B). Sulfur conjugation occurs at the meta-hydroxyl group (FIG. 4C). Without being bound by theory and without requiring an understanding of the mechanism to practice the technology, it is contemplated that rapid metabolism of [^18F]4F-MHPG is a reason for its low liver uptake. In comparison, the structurally similar carbon-11 compound, [^11C]guanyl-meta-octopamine (GMO), has a slower metabolic breakdown in monkey plasma, with a T1/2 for breakdown of approximately 13 minutes.

N=C(N)NCCc1ccc(F)c(O)c1 [[^18F]4F-MHPG] [4-[^18F]fluoro-meta-hydroxy-phenethylguanidine]
specificity of myocardial uptake for cardiac sympathetic neurons ([1]; control vs DMI block): 100%
nonspecific binding in heart tissue ([1]; highest dose DMI block study): very low; also recorded: extremely low
fraction sulfur conjugated ([2]; after 1 minute of in vitro incubation): approximately 70%
fraction in the sulfur-conjugated form ([2]; after 20 minutes of incubation): 100%
